In patent US8278345B2, “Inhibitors of glutaminyl cyclase” (Probiodrug AG, priority 2006, dated 2012):

Biological target: hQC (Homo sapiens, UniProt Q16769)
Experiment: Inhibitor assay for glutaminyl cyclase activity (fluorometric, H-Gln-βNA / H-Gln-AMC)
Assay type: biochemical
Conditions: read-out: IC50
Procedure: All measurements were performed with a BioAssay Reader HTS-7000Plus for microplates (Perkin Elmer) at 30° C. QC activity was evaluated fluorometrically using H-Gln-βNA. The samples consisted of 0.2 mM fluorogenic substrate, 0.25 U pyroglutamyl aminopeptidase (Unizyme, Hørsholm, Denmark) in 0.2 M Tris/HCl, pH 8.0 containing 20 mM EDTA and an appropriately diluted aliquot of QC in a final volume of 250 μl. Excitation/emission wavelengths were 320/410 nm. The assay reactions were initiated by addition of glutaminyl cyclase. QC activity was determined from a standard curve of β-naphthylamine under assay conditions. One unit is defined as the amount of QC catalyzing the formation of 1 μmol pGlu-βNA from H-Gln-βNA per minute under the described conditions.
In a second fluorometric assay, QC activity was determined using H-Gln-AMC as substrate. Reactions were carried out at 30° C. utilizing the NOVOStar reader for microplates (BMG labtechnologies). The samples consisted of varying concentrations of the fluorogenic substrate, 0.1 U pyroglutamyl aminopeptidase (Qiagen) in 0.05 M Tris/HCl, pH 8.0 containing 5 mM EDTA and an appropriately diluted aliquot of QC in a final volume of 250 μl. Excitation/emission wavelengths were 380/460 nm. The assay reactions were initiated by addition of glutaminyl cyclase. QC activity was determined from a standard curve of 7-amino-4-methylcoumarin under assay conditions. The kinetic data were evaluated using GraFit sofware.
For inhibitor testing, the sample composition was the same as described above, except of the putative inhibitory compound added. For a rapid test of QC-inhibition, samples contained 4 mM of the respective inhibitor and a substrate concentration at 1 KM. For detailed investigations of the inhibition and determination of Ki-values, influence of the inhibitor on the auxiliary enzymes was investigated first. In every case, there was no influence on either enzyme detected, thus enabling the reliable determination of the QC inhibition. The inhibitory constant was evaluated by fitting the set of progress curves to the general equation for competitive inhibition using GraFit software.

Sequence of hQC (Q16769 29-361): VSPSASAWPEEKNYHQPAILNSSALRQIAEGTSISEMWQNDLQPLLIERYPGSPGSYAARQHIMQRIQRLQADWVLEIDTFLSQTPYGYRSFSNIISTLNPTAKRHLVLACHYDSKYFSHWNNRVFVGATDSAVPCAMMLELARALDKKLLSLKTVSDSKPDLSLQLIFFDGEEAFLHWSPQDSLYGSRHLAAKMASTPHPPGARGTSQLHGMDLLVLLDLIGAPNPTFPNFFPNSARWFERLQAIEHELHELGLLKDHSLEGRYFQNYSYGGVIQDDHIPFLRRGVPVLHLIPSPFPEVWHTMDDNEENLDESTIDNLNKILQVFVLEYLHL

CC1=C(O)C(=O)N(CCCn2ccnc2)C1C1=CCCCC1 (stereo not shown) [Compound 36, 5-Cyclohex-1-enyl-3-hydroxy-1-(3-imidazol-1-yl-propyl)-4-methyl-1,5-dihydro-pyrrol-2-one]
IC50: 2.2 µM

CC1=C(O)C(=O)N(CCCn2ccnc2)C1c1c[nH]c2cc(C)ccc12 (stereo not shown) [Compound 37, 3-Hydroxy-1-(3-imidazol-1-yl-propyl)-4-methyl-5-(6-methyl-1H-indol-3-yl)-1,5-dihydro-pyrrol-2-one]
IC50: 0.4 µM

CC1=C(O)C(=O)N(CCCn2ccnc2)C1C(F)(F)F (stereo not shown) [Compound 38, 3-Hydroxy-1-(3-imidazol-1-yl-propyl)-4-methyl-5-trifluoromethyl-1,5-dihydro-pyrrol-2-one]
IC50: 2.2 µM

CC1=C(O)C(=O)N(CCCn2ccnc2)C1c1c[nH]c2ccccc12 (stereo not shown) [Compound 39, 3-Hydroxy-1-(3-imidazol-1-yl-propyl)-5-(1H-indol-3-yl)-4-methyl-1,5-dihydro-pyrrol-2-one]
IC50: 0.4 µM

CC1=C(O)C(=O)N(CCCn2ccnc2)C1c1ncc[nH]1 (stereo not shown) [Compound 40, 3-Hydroxy-5-(1H-imidazol-2-yl)-1-(3-imidazol-1-yl-propyl)-4-methyl-1,5-dihydro-pyrrol-2-one]
IC50: 2.2 µM

CC1=C(O)C(=O)N(CCCn2ccnc2)C1Cc1ccccc1 (stereo not shown) [Compound 41, 5-Benzyl-3-hydroxy-1-(3-imidazol-1-yl-propyl)-4-methyl-1,5-dihydro-pyrrol-2-one]
IC50: 1.3 µM

CC1=C(O)C(=O)N(CCCn2ccnc2)C1c1c(O)ccc2ccccc12 (stereo not shown) [Compound 42, 3-Hydroxy-5-(2-hydroxy-naphthalen-1-yl)-1-(3-imidazol-1-yl-propyl)-4-methyl-1,5-dihydro-pyrrol-2-one]
IC50: 2.2 µM

CC1=C(O)C(=O)N(CCCn2ccnc2)C1c1ccccn1 (stereo not shown) [Compound 43, 3-Hydroxy-1-(3-imidazol-1-yl-propyl)-4-methyl-5-pyridin-2-yl-1,5-dihydro-pyrrol-2-one]
IC50: 2.2 µM

CC1=C(O)C(=O)N(CCCn2ccnc2)C1c1ccncc1 (stereo not shown) [Compound 44, 3-Hydroxy-1-(3-imidazol-1-yl-propyl)-4-methyl-5-pyridin-4-yl-1,5-dihydro-pyrrol-2-one]
IC50: 3.1 µM

CC1=C(O)C(=O)N(CCCn2ccnc2)C1c1cccs1 (stereo not shown) [Compound 45, 3-Hydroxy-1-(3-imidazol-1-yl-propyl)-4-methyl-5-thiophen-2-yl-1,5-dihydro-pyrrol-2-one]
IC50: 3.1 µM

CC1=C(O)C(=O)N(CCCn2ccnc2)C1C1CC1 (stereo not shown) [Compound 46, 5-Cyclopropyl-3-hydroxy-1-(3-imidazol-1-yl-propyl)-4-methyl-1,5-dihydro-pyrrol-2-one]
IC50: 2.2 µM

CC1=C(O)C(=O)N(CCCn2ccnc2)C1c1ccco1 (stereo not shown) [Compound 47, 5-(Furan-2-yl-)3-hydroxy-1-(3-imidazol-1-yl-propyl)-4-methyl-1,5-dihydro-pyrrol-2-one]
IC50: 0.4 µM

CCCCC1C(C)=C(O)C(=O)N1CCCn1ccnc1 (stereo not shown) [Compound 48, 5-Butyl-3-hydroxy-1-(3-imidazol-1-yl-propyl)-4-methyl-1,5-dihydro-pyrrol-2-one]
IC50: 2.2 µM

CCC1C(C)=C(O)C(=O)N1CCCn1ccnc1 (stereo not shown) [Compound 49, 5-Ethyl-3-hydroxy-1-(3-imidazol-1-yl-propyl)-4-methyl-1,5-dihydro-pyrrol-2-one]
IC50: 4.9 µM

CC1=C(O)C(=O)N(CCCn2ccnc2)C1c1cccc(Cl)c1 (stereo not shown) [Compound 50, 5-(3-Chloro-phenyl)-3-hydroxy-1-(3-imidazol-1-yl-propyl)-4-methyl-1,5-dihydro-pyrrol-2-one]
IC50: 0.4 µM

CC1=C(O)C(=O)N(CCCn2ccnc2)C1c1ccccc1F (stereo not shown) [Compound 51, 5-(2-Fluoro-phenyl)-3-hydroxy-1-(3-imidazol-1-yl-propyl)-4-methyl-1,5-dihydro-pyrrol-2-one]
IC50: 1.3 µM

CC1=C(O)C(=O)N(CCCn2ccnc2)C1c1ccc(O)cc1 (stereo not shown) [Compound 52, 3-Hydroxy-5-(4-hydroxy-phenyl)-1-(3-imidazol-1-yl-propyl)-4-methyl-1,5-dihydro-pyrrol-2-one]
IC50: 1.3 µM

CC1=C(O)C(=O)N(CCCn2ccnc2)C1c1cccc(O)c1 (stereo not shown) [Compound 53, 3-Hydroxy-5-(3-hydroxy-phenyl)-1-(3-imidazol-1-yl-propyl)-4-methyl-1,5-dihydro-pyrrol-2-one]
IC50: 1.3 µM

Cc1ccc(C2C(C(C)C)=C(O)C(=O)N2CCCn2ccnc2)cc1 (stereo not shown) [Compound 54, 3-Hydroxy-1-(3-imidazol-1-yl-propyl)-4-isopropyl-5-p-tolyl-1,5-dihydro-pyrrol-2-one]
IC50: 0.4 µM

CCCC1C(C(C)C)=C(O)C(=O)N1CCCn1ccnc1 (stereo not shown) [Compound 55, 3-Hydroxy-1-(3-imidazol-1-yl-propyl)-4-isopropyl-5-propyl-1,5-dihydro-pyrrol-2-one]
IC50: 5.8 µM

CC(C)C1=C(O)C(=O)N(CCCn2ccnc2)C1c1cc[nH]n1 (stereo not shown) [Compound 56, 3-Hydroxy-1-(3-imidazol-1-yl-propyl)-4-isopropyl-5-(1H-pyrazol-3-yl)-1,5-dihydro-pyrrol-2-one]
IC50: 2.2 µM

Cc1ccc(C2C(C(C)C)=C(O)C(=O)N2CCCn2ccnc2)o1 (stereo not shown) [Compound 57, 3-Hydroxy-1-(3-imidazol-1-yl-propyl)-4-isopropyl-5-(5-methyl-furan-2-yl)-1,5-dihydro-pyrrol-2-one]
IC50: 1.3 µM

CC(C)C1=C(O)C(=O)N(CCCn2ccnc2)C1c1ccc2[nH]ccc2c1 (stereo not shown) [Compound 58, 3-Hydroxy-1-(3-imidazol-1-yl-propyl)-5-(1H-indol-5-yl)-4-isopropyl-1,5-dihydro-pyrrol-2-one]
IC50: 3.1 µM

COc1ccc(C2C(C(C)C)=C(O)C(=O)N2CCCn2ccnc2)cc1 (stereo not shown) [Compound 59, 3-Hydroxy-1-(3-imidazol-1-yl-propyl)-4-isopropyl-5-(4-methoxy-phenyl)-1,5-dihydro-pyrrol-2-one]
IC50: 0.4 µM

CC(C)C1=C(O)C(=O)N(CCCn2ccnc2)C1c1ccccc1O (stereo not shown) [Compound 60, 3-Hydroxy-5-(2-hydroxy-phenyl)-1-(3-imidazol-1-yl-propyl)-4-isopropyl-1,5-dihydro-pyrrol-2-one]
IC50: 9.4 µM

Cc1ccc(C2C(C(C)C)=C(O)C(=O)N2CCCn2ccnc2)cc1C (stereo not shown) [Compound 61, 5-(3,4-Dimethyl-phenyl)-3-hydroxy-1-(3-imidazol-1-yl-propyl)-4-isopropyl-1,5-dihydro-pyrrol-2-one]
IC50: 0.4 µM

CCCCCC1C(C(C)C)=C(O)C(=O)N1CCCn1ccnc1 (stereo not shown) [Compound 62, 3-Hydroxy-1-(3-imidazol-1-yl-propyl)-4-isopropyl-5-pentyl-1,5-dihydro-pyrrol-2-one]
IC50: 0.04 µM

CC(C)C1=C(O)C(=O)N(CCCn2ccnc2)C1c1ccc(CO)o1 (stereo not shown) [Compound 63, 3-Hydroxy-5-(5-hydroxymethyl-furan-2-yl)-1-(3-imidazol-1-yl-propyl)-4-isopropyl-1,5-dihydro-pyrrol-2-one]
IC50: 3.1 µM

CC(C)C1=C(O)C(=O)N(CCCn2ccnc2)C1/C=C/c1ccccc1 (stereo not shown) [Compound 64, 3-Hydroxy-1-(3-imidazol-1-yl-propyl)-4-isopropyl-5-(styryl)-1,5-dihydro-pyrrol-2-one]
IC50: 3.1 µM

CC(C)C1=C(O)C(=O)N(CCCn2ccnc2)C1c1ccccc1 (stereo not shown) [Compound 65, 3-Hydroxy-1-(3-imidazol-1-yl-propyl)-4-isopropyl-5-phenyl-1,5-dihydro-pyrrol-2-one]
IC50: 3.1 µM

CC(C)C1=C(O)C(=O)N(CCCn2ccnc2)C1C1CCC=CO1 (stereo not shown) [Compound 66, 5-(3,4-Dihydro-2H-pyran-2-yl)-3-hydroxy-1-(3-imidazol-1-yl-propyl)-4-isopropyl-1,5-dihydro-pyrrol-2-one]
IC50: 2.2 µM

CC(C)C1=C(O)C(=O)N(CCCn2ccnc2)C1C1=CCCCC1 (stereo not shown) [Compound 67, 5-Cyclohex-1-enyl-3-hydroxy-1-(3-imidazol-1-yl-propyl)-4-isopropyl-1,5-dihydro-pyrrol-2-one]
IC50: 2.2 µM

CC(C)C1=C(O)C(=O)N(CCCn2ccnc2)C1Cc1ccccc1 (stereo not shown) [Compound 68, 5-Benzyl-3-hydroxy-1-(3-imidazol-1-yl-propyl)-4-isopropyl-1,5-dihydro-pyrrol-2-one]
IC50: 0.04 µM

CC(C)C1=C(O)C(=O)N(CCCn2ccnc2)C1c1ccccn1 (stereo not shown) [Compound 69, 3-Hydroxy-1-(3-imidazol-1-yl-propyl)-4-isopropyl-5-pyridin-2-yl-1,5-dihydro-pyrrol-2-one]
IC50: 4.9 µM

CC(C)C1=C(O)C(=O)N(CCCn2ccnc2)C1c1ccncc1 (stereo not shown) [Compound 70, 3-Hydroxy-1-(3-imidazol-1-yl-propyl)-4-isopropyl-5-pyridin-4-yl-1,5-dihydro-pyrrol-2-one]
IC50: 4.9 µM

CC(C)C1=C(O)C(=O)N(CCCn2ccnc2)C1c1cccs1 (stereo not shown) [Compound 71, 3-Hydroxy-1-(3-imidazol-1-yl-propyl)-4-isopropyl-5-thiophen-2-yl-1,5-dihydro-pyrrol-2-one]
IC50: 4 µM

CC(C)C1=C(O)C(=O)N(CCCn2ccnc2)C1c1ccco1 (stereo not shown) [Compound 72, 5-Furan-2-yl-3-hydroxy-1-(3-imidazol-1-yl-propyl)-4-isopropyl-1,5-dihydro-pyrrol-2-one]
IC50: 2.2 µM
